ID50 and Activity data for 23 compounds are collected here from ChEMBL document CHEMBL1147305, “Inhibition of protein-tyrosine kinase activity by flavanoids and related compounds” (J Nat Prod, 1989).

≈ marks a conversion by molar mass, not a printed value. Calls of active or inactive are those of the source. No cut-off for these calls is given here.

This assay is filed under the species Bos taurus. The assay can be described thus: Inhibition of bovine thymocytes protein tyrosine kinase assessed as angiotensin 1 phosphorylation.
`COc1ccc(-c2oc3cc(OC)cc(O)c3c(=O)c2OC)cc1`: the ID50 was above 500 µg/mL.
Regarding `O=c1c(-c2ccc(O)cc2)coc2cc(O)c(O)cc12`, the ID50 is above 500 µg/mL.
Take `COc1ccc(-c2cc(=O)c3c(O)cc(OC)cc3o2)cc1`: the ID50 is above 500 µg/mL.
Regarding `COc1cc(C(=O)O)cc(OC)c1O`, the ID50 was above 500 µg/mL.
`O=C(O)/C=C/c1ccc(O)cc1`: the ID50 was 450 µg/mL (≈ 2740 µM).
In the case of `O=c1cc(-c2ccc(O)cc2)oc2cc(O)cc(O)c12`, the ID50 was 90 µg/mL (≈ 333 µM).
Still for that read-out and setting: the result for `O=c1c(O)c(-c2ccc(O)c(O)c2)oc2cc(O)cc(O)c12` reads 11 µg/mL (≈ 36.4 µM); that for `COc1ccc(-c2oc3cc(O)cc(O)c3c(=O)c2OC)cc1`, above 500 µg/mL.
Same read-out and setting: the result for `O=C1CC(c2ccccc2)Oc2cc(O)ccc21` (stereo not drawn) reads above 500 µg/mL; that for `O=c1c(O)c(-c2cc(O)c(O)c(O)c2)oc2cc(O)ccc12`, 7 µg/mL (≈ 23.2 µM).
For `COc1ccc(-c2coc3cc(O)cc(O)c3c2=O)cc1`, the ID50 was above 500 µg/mL.
As for `O=c1c(O)c(-c2ccc(O)c(O)c2)oc2cc(O)ccc12`, the ID50 was 35 µg/mL (≈ 122 µM).
The same measure, in the same setting: under `O=c1c(-c2ccc(O)cc2)coc2cc(O)cc(O)c12` stands above 500 µg/mL.
On to `O=c1cc(-c2ccccc2)oc2ccc3ccccc3c12`, for which the result was inactive.
Consider `COc1cc(/C=C/C(=O)O)ccc1O`, for which the ID50 worked out at 350 µg/mL (≈ 1800 µM).
Regarding `O=C1C[C@@H](c2ccc(O)cc2)Oc2cc(O)cc(O)c21`, the ID50 is 80 µg/mL (≈ 294 µM).
On to `COc1ccc(-c2cc(=O)c3c(O)cc(O)cc3o2)cc1`, for which the ID50 amounted to 300 µg/mL (≈ 1060 µM).
Turning to `O=C1c2c(O)cc(O)cc2O[C@H](c2ccc(O)c(O)c2)[C@H]1O`, the ID50 was found to be 270 µg/mL (≈ 887 µM).
Consider `O=c1c(O)c(-c2cc(O)c(O)c(O)c2)oc2cc(O)cc(O)c12`, for which the ID50 was 11 µg/mL (≈ 34.6 µM).
Turning to `O=C1c2ccc(O)cc2O[C@H](c2ccc(O)c(O)c2)[C@H]1O`, the ID50 was above 500 µg/mL.
Same read-out and setting: the result for `C[C@H]1O[C@@H](Oc2c(-c3cc(O)c(O)c(O)c3)oc3cc(O)cc(O)c3c2=O)[C@@H](O)[C@@H](O)[C@@H]1O` reads above 500 µg/mL; that for `O=C1C[C@@H](c2ccccc2)Oc2cc(O)cc(O)c21`, above 500 µg/mL.
Same read-out and setting: the result for `COc1ccc(-c2cc(=O)c3c(O)c(OC)c(O)c(OC)c3o2)cc1` reads 48 µg/mL (≈ 139 µM).
